Data reported in patent US20230382915A1, “GCN2 AND PERK KINASE INHIBITORS AND METHODS OF USE THEREOF” (Deciphera Pharmaceuticals, LLC, priority 2021, published 2023).

Legend:
[1] = target: Recombinant GCN2 (EIF2AK4) (Homo sapiens (Human), UniProt Q9P2K8); assay: Recombinant GCN2 activation assay; format: biochemical; settings: FIG. 9A
Experimental: Recombinant GCN2 (EIF2AK4) (Carna Biosciences, Japan) was dephosphorylated by incubating with 16,000 units of lambda phosphatase (New England Biolabs, Ipswich, MA) for 3 h at 30° C. in 1×phosphatase reaction buffer. To measure Compound 2-mediated GCN2 modulation, 12.5 nM dephosphorylated GCN2 diluted in Kinase buffer (Invitrogen, Carlsbad, CA) was incubated with Compound 2 titer for 30 min at RT. Following incubation, 130 nM substrate (GFP-eIF2α) (ThermoFisher Scientific, Waltham, MA) and 0.05 mM ATP was added to the mixture and incubated for 60 min at RT. Reaction was stopped by the addition of 10 mM EDTA and phosphorylated eiF2a substrate was detected using 2 nM LanthaScreen Tb-anti-peIF2α (pSer52) antibody (ThermoFisher Scientific, Waltham, MA) then incubated in the dark. After a 60 min incubation at room temperature, TR-FRET was monitored using an excitation wavelength of 340 nm and emission wavelengths of 490 nm and 520 nm.

[2] = tested on: LoVo colorectal xenograft; assay: LoVo xenograft efficacy model; format: in vivo, mice; settings: 5 mg/kg BID, 22 days of dosing
Experimental: The LoVo xenograft model was performed in compliance with all the laws, regulations and guidelines of the National Institutes of Health (NIH) and with the approval of the Animal Care and Use Committee of Crown Bioscience (Taicang, China), an AAALAC accredited facility. Food and water were provided ad libitum. […] Female Balb/c nude mice (5-9 weeks old) were inoculated subcutaneously just below the right high axilla with ten million cells in Dulbecco's Phosphate Buffered Saline, using a 27-gauge needle and syringe. When tumor burdens reached 100 mm 3 on average on day 6, mice were randomly assigned into groups such that the mean tumor burden for all groups was within 10% of the overall mean tumor burden for the study population. Groups were treated on days 6-27 as follows: vehicle control (dosed orally) (n=9); Compound 2 dosed orally at 5 mg/kg BID (n=9); Compound 2 dosed orally at 1 mg/kg BID. Tumor volume and body weights were measured three time per week. Tumor burden (mg) was estimated from caliper measurements by the formula: tumor burden (mg=mm 3)=(length×width 2)/2.

[3] = tested on: ATF4 in thapsigargin stimulated CCRF-CEM cells (PERK); assay: CCRF-CEM thapsigargin (TG) ATF4 ELISA; format: cell-based; settings: Homo sapiens, 1 μM thapsigargin
Experimental: CCRF-CEM leukemia cells (catalog #CCL-116) were obtained from the American Type Culture Collection (ATTC, Manassas, VA). Briefly, cells were grown in RPMI-1640 medium supplemented with 10% heat-inactivated fetal bovine serum (Invitrogen, Carlsbad, CA) and 1% Penicillin/Streptomycin/L-Glutamine at 37° C., 5% CO2, and 95% humidity. Cells were expanded until reaching one million cells per mL at which time they were subcultured or harvested for assay use. One million five hundred thousand cells per well in 1 mL complete growth medium were dispensed into 12-well plates and incubated overnight. A serial dilution of test compound was added and cells were incubated at 37° C., 5% CO2, and 95% for three hours, then 1 μM thapsigargin was added and cells were incubated for an additional hour at 37° C., 5% CO2, and 95%. Cells were lysed then ATF4 levels were measured using an ELISA assay (Proteintech, Rosemont, IL). Absorbance was measured at 450 nm and 544 nM using a Synergy2 or equivalent reader (Biotek, Winooski VT). Data was analyzed using PRISM software (Graphpad, San Diego, CA) to calculate IC50 values.

GCN2 kinase = GCN2 kinase (Homo sapiens (Human), UniProt Q9P2K8); assay: Biochemical assay for GCN2 (TR-FRET kinase activity); settings: 1 mM ATP
Chain of GCN2 kinase (Q9P2K8 whole entry): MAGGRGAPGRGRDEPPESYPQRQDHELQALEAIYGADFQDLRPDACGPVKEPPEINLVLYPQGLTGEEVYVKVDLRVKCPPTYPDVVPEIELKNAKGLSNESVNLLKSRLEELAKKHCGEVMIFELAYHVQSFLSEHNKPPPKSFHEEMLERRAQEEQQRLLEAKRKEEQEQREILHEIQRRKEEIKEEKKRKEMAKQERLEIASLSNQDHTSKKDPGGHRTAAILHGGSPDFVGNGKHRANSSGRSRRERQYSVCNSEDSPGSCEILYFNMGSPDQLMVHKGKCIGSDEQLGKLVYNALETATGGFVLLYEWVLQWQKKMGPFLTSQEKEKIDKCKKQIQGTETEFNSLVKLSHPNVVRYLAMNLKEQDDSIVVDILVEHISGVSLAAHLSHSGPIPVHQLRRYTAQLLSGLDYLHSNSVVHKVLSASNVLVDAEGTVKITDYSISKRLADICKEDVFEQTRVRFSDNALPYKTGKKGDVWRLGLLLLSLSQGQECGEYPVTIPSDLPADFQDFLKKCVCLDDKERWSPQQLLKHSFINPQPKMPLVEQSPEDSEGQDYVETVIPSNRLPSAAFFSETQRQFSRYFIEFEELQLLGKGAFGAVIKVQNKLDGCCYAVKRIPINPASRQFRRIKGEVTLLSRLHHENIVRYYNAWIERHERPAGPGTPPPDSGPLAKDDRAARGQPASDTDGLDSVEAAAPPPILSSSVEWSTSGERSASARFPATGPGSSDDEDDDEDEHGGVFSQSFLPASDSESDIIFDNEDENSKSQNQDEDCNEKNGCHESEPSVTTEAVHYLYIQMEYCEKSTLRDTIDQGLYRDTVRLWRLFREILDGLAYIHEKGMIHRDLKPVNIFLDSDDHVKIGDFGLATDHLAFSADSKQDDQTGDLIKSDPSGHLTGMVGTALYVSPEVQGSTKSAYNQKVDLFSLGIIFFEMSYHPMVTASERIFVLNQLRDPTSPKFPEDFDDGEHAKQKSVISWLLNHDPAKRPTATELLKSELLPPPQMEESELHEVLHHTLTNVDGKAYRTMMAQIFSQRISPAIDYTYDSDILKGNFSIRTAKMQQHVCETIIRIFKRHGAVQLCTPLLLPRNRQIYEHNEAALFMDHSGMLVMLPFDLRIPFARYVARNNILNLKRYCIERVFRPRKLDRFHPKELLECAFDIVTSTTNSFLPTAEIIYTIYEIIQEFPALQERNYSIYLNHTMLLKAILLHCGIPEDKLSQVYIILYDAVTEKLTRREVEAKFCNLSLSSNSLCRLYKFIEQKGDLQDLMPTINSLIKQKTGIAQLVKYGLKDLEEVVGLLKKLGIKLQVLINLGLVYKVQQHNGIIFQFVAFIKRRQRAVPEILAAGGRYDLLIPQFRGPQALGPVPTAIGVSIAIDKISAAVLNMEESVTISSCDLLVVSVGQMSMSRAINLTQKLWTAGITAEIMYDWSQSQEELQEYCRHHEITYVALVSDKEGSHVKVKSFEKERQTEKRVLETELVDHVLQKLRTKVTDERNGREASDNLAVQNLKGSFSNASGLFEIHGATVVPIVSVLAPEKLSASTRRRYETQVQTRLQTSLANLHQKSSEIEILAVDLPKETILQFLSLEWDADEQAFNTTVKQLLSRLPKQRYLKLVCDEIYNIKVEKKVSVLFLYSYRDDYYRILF
Experimental: Activity of GCN2 kinase was determined using a TR-FRET kinase activity assay (e.g. Riddle et al. Analytical Biochemistry (2006) 356(1) 108-116). Assays were conducted in 384-well plates (13 μL assay volume) using 2 nM GCN2 (Carna Biosciences), 130 nM GFP-EIf2α (Invitrogen), 0.2 mg/mL E. coli tRNA (sigma) and 1 mM ATP in kinase buffer (Invitrogen). Inhibition of GCN2 was measured by adding serial diluted test compound (final assay concentration of 0.5% DMSO) followed by a 3-hour incubation. Tb-peIF2α (pSer52) antibody (Invitrogen) (2 nM final assay concentration) in kinase buffer containing EDTA (final assay concentration of 20 mM) was added. After a 60 min incubation at room temperature, TR-FRET was monitored using an excitation wavelength of 340 nm and emission wavelengths of 490 nm and 520 nm. The emission ratio (520/490) at each compound concentration of was converted to percent inhibition using controls (i.e., reaction with no test compound and reaction with a known inhibitor) and IC50 values were calculated by fitting a four-parameter sigmoidal curve to the data using Prism (GraphPad software).

[4] = tested on: ATF4 in H929 multiple myeloma cells; assay: H929 ATF4 ELISA assay; format: cell-based
Experimental: H929 multiple myeloma cells (catalog #CRL-9068) were obtained from the American Type Culture Collection (ATTC, Manassas, VA). Briefly, cells were grown in RPMI-1640 medium supplemented with 20% heat-inactivated fetal bovine serum (catalog #A3840002, ThermoFisher Scientific, Waltham, MA), 1% Penicillin/Streptomycin/L-Glutamine (catalog #10378016, ThermoFisher Scientific, Waltham, MA), and 0.05 mM 2-mercaptoethanol (catalog #21985-023, ThermoFisher Scientific, Waltham, MA) at 37° C., 5% CO2, and 95% humidity. Cells were expanded until reaching one million five hundred thousand cells per mL at which time they were sub-cultured or harvested for assay use. One million five hundred thousand cells per well in 1 mL complete growth medium were dispensed into 12-well plates and incubated overnight. A serial dilution of test compound was added, and cells were incubated at 37° C., 5% CO2, and 95% for four hours. Cells were lysed then ATF4 levels were measured using an ELISA assay (Proteintech, Rosemont, IL). Absorbance is measured at 450 nm and 544 nM using a Synergy2 or equivalent reader (Biotek, Winooski VT). Data were analyzed using PRISM software (Graphpad, San Diego, CA) to calculate fold stimulation of cellular ATF4 relative to vehicle treated control.

Chain of Recombinant GCN2 (EIF2AK4) (Q9P2K8 whole entry): as above

Q: What does the source list for `Cn1cc(-c2cccc(NS(=O)(=O)c3cc(Cl)cc(CO)c3Cl)c2F)c2c(N)ncnc21` [Example 2, N-(3-(4-amino-7-methyl-7H-pyrrolo[2,3-d]pyrimidin-5-yl)-2-fluorophenyl)-2,5-dichloro-3-(hydroxymethyl)benzenesulfonamide]?
A: concentrations at which GCN2 enzyme is activated [1]: 0.05 to 3 nM; concentrations at which recombinant GCN2 activity is inhibited [1]: above 10 nM; activation of GCN2 enzyme, % of control ([1]; at 0.05-3 nM): up to 250 % of control; mean tumor growth inhibition [2]: 69%; IC50 [3]: ≤ 0.1 µM; IC50 (GCN2 kinase): ≤ 0.1 µM; concentration at which maximum ATF4 stimulation occurred ([4]; FIG. 1): around 41 nM; maximum stimulation in ATF4 signal ([4]; FIG. 1): 13 fold; concentrations at which ATF4 expression reverted to basal levels ([4]; FIG. 1, inhibitory phase): ≥ 370 nM; H929 NS ATF4 ELISA (ATF4 stim) ([4]; four hours, relative to vehicle treated control): +++ (an ATF4 stim greater than 10 fold and less than or equal to 20 fold)
